Patent US5059438A, “Compositions and methods for inhibiting browning in foods using resorcinol derivatives” (Enzytech, Inc., priority 1990, dated 1991)
pIC50: −log10 of the molar value. One block for each compound: values may come before it.

Key:
[1] = system: McIntosh apples, browning; test: Inhibition of browning in apples by Formula V and YM5 eluate; conditions: lactose 9.0%, 1,4-diaminobutane 5 mM
Method: Two fresh and unbruised whole McIntosh apples, held at ambient temperature,were sliced with a stainless steel paring knife into quarters, cored, then cut into 1/4-inch slices. A volume of 0.8 mL of each of the treatment solutions listed in Table 5 at ambient temperature was applied onto the top exposed surface of freshly cut white slices, triplicate samples per treatment. […] Following application, the slices stood at ambient temperature, exposed to air and light, for periodic visual observation of relative rate and extent of browning, from 15 minutes to 4 hours.

PPO (mushroom) = test: Inhibition of PPO by various resorcinol derivatives (linear spectrophotometric assay); type: biochemical; conditions: 0.133 mM L-DOPA, pH 6.5, 25° C., 475 nm, read-out: I50 (apparent inhibition constant)
Method: In order to determine the effect of various resorcinol compounds on the inhibition of PPO (mushroom), a linear spectrophotmetric assay system similar to that described in Example 1 was used. The assay mixture consisted of:
5 mM sodium phosphate, pH 6.5;
0.133 mM L-dihydroxyphenylalanine (L-DOPA); PPO (mushroom); and
+/- varied concentrations of the compound to be tested
The rate of the reaction was monitored by measuring the change in absorbance per minute at 475 nm at 25° C.
I50 represents the concentration of inhibitor necessary to obtain fifty (50%) percent inhibition of the enzyme.

pink shrimp melanosis = test: Effect of 4-hexylresorcinol, Formula VI and Formula IV compounds on development of shrimp melanosis; design: species or system Penaeus duorarum
Method: In one embodiment of the present invention, pink shrimp were treated with an aqueous solution of the compound of Formula II. Formula II was used at concentrations ranging from 0.0001 to 0.005%, and compared to shrimp treated with sodium bisulfite and sea water. The sea water treated shrimp developed melanosis spots within 1-2 days. […] A concentration of up to about 0.1% of Formula II can be used for inhibiting browning.
Harvests were arranged such that fresh, heads-on pink shrimp were obtained within less than 12 hours post-harvest at the dock. All shrimp were routinely washed on-board and temporarily stored in ice. The basic procedure was to rinse 400-600 grams of shrimp in 2.5 liters of variable dip compositions and concentrations for 1 minute then drain and package in plastic bags to be stored in ice. The bags were considered necessary to eliminate the variable influence of melting ice. Iced containers with packaged shrimp were stored in 35° F. (1.7° C.) refrigeration with reicing every other day.
Development of melanosis was scored and photographed routinely during 2 weeks of storage. The bags of shrimp had been numbered such that the investigator could not distinguish amongst the various treatments. One experienced investigator did all scoring relative to the aforementioned scale (Table 2). The scale was accompanied by pre-developed color prints depicting common examples of the advancing stages for melanosis. The intent was to screen for obvious differences between treatments, thus selecting the best treatments for subsequent tests with statistical evaluations.
Pink shrimp were treated and evaluated as described in Example 8 except that the compound of Formula II (4-hexylresorcinol, Sigma Chemical Co.) was substituted for the Formula V compound. Pink shrimp were dipped into solutions of 0.0001-0.005% of the Formula II compound and stored as described above.
Pink shrimp were treated and evaluated as described in Example 8 except that the compound of Formula VI (see Example 6) was substituted for the Formula V compound. Pink shrimp were dipped into solutions of 0.001-0.025%of the Formula VI compound and stored as described above.
Pink shrimp were treated and evaluated as described in Example 8 except that the compound of Formula IV (2,4-dihydroxyphenylpropionic acid) was substituted for the Formula V compound. Pink shrimp were dipped into solutions of 0.001-0.1% the Formula IV compound and stored as described above.

[2] = system: fresh pink shrimp (Penaeus duorarum) melanosis; test: Effect of Formula V compound on fresh pink shrimp melanosis
Method: Pink shrimp (Penaeus duorarum) were treated and evaluated as described in Example 8 except that the experiment was carried out on a shrimp boat with freshly caught shrimp. The shrimp were not frozen prior to treatment with various concentrations of the compound of Formula V. All solutions were prepared in sea water.
Fresh pink shrimp were treated and evaluated as described in Example 12. The shrimp treated with 0.025% of the compound of Formula V were stored directly or following a sea water rinse, post-treatment.
Fresh pink shrimp were treated and evaluated as described in Example 12. The shrimp were dipped in a 0.01% solution of the compound of Formula V made up in either sea or fresh water.
Fresh pink shrimp were treated and evaluated as described in Example 12. In this example, different one pound batches of shrimp were dipped into the same one liter solution of 0.01% of the Formula V compound for one minute each. A total of eight dips were performed.

PPO in peaches = conditions: Wong et al. 1971; cited from earlier work
[3] = system: mushroom PPO (catecholase); conditions: Kuttner and Wagreich 1952; cited from earlier work

Structure (SMILES): NCCCCN [1,4-diaminobutane]
- prevention of browning of apples, conclusion [1]: did not prevent browning

Structure (SMILES): O=C(O)c1ccc(O)cc1O [4-Carboxyresorcinol, 2,4-Dihydroxybenzoic Acid]
- pIC50 (PPO (mushroom)): 3.82

Structure (SMILES): Oc1ccc(C2CCCCC2)c(O)c1 [4-Cyclohexylresorcinol]
- pIC50 (PPO (mushroom)): 6.70

Structure (SMILES): O=C(O)CCc1ccc(O)cc1O [Formula IV, 2,4-dihydroxyphenylpropionic acid]
- lowest concentration inhibiting formation of shrimp melanosis (inhibitor at concentrations as low as) (pink shrimp melanosis; FIG. 12, tested 0.001-0.1%): 0.05%

Structure (SMILES): NCCCCNC(=O)CCc1ccc(O)cc1O [Formula V, 2,4-dihydroxyphenylpropionyldiaminobutane]
- effect of fresh or sea water as solvent on inhibition of shrimp melanosis (FIG. 8) ([2]; 0.01%): no significant effect
- effect of post-treatment sea water rinse on inhibition of shrimp melanosis (FIG. 7) ([2]; 0.025%): no significant effect

Structure (SMILES): OC[C@H]1O[C@@H](O[C@H]2[C@H](O)[C@@H](O)C(O)O[C@@H]2CO)[C@H](O)[C@@H](O)[C@H]1O (stereo partly shown) [Lactose]
- prevention of browning of apples, conclusion [1]: did not prevent browning

Structure (SMILES): O=C(O)c1ccccc1 [benzoic acid]
- inhibition of mushroom PPO (catecholase) [3]: inhibited

Structure (SMILES): Oc1cc(O)c2c(c1)O[C@H](c1ccc(O)c(O)c1)[C@@H](O)C2 [d-catechin]
- reaction with 4-methyl-o-quinone formed by PPO in peaches (PPO in peaches): react with 4-methyl-o-quinone
- substrate for PPO (PPO in peaches): not substrates for PPO

Structure (SMILES): Cc1cc(O)cc(O)c1 [orcinol]
- reaction with 4-methyl-o-quinone formed by PPO in peaches (PPO in peaches): react with 4-methyl-o-quinone
- substrate for PPO (PPO in peaches): not substrates for PPO

Structure (SMILES): Oc1cc(O)cc(O)c1 [phloroglucinol]
- reaction with 4-methyl-o-quinone formed by PPO in peaches (PPO in peaches): react with 4-methyl-o-quinone
- substrate for PPO (PPO in peaches): not substrates for PPO

Further lines, with some results ahead:

- pIC50 (PPO (mushroom)): 6.52
Structure (SMILES): CCCCCCCCCCCCc1ccc(O)cc1O [4-Dodecylresorcinol]

- pIC50 (PPO (mushroom)): 6.10
Structure (SMILES): CCc1ccc(O)cc1O [4-Ethylresorcinol]

- pIC50 (PPO (mushroom)): 3.12
Structure (SMILES): CCCCCC(=O)c1ccc(O)cc1O [4-Hexanoylresorcinol]

- pIC50 (PPO (mushroom)): 5.74
Structure (SMILES): CCCc1ccc(O)cc1O [4-n-Propylresorcinol]

- pIC50 (PPO (mushroom)): 6.30
Structure (SMILES): CCCCCCc1ccc(O)cc1O [Formula II, 4-hexylresorcinol]
- inhibiting browning of shrimp on a weight basis vs sodium bisulfite (pink shrimp melanosis; 0.0001 to 0.005% (FIG. 10)): more effective on a weight basis than sodium bisulfite
- inhibiting shrimp melanosis vs sodium bisulfite (pink shrimp melanosis; 0.005% by weight vs 1.25% by weight bisulfite (FIG. 10)): almost as effective in inhibiting shrimp melanosis as a solution of 1.25% by weight bisulfite
- lowest concentration inhibiting formation of shrimp melanosis (potent inhibitor at concentrations as low as) (pink shrimp melanosis; FIG. 10, tested 0.0001-0.005%): 0.0005%

- pIC50 (PPO (mushroom)): 5.30
Structure (SMILES): O=C(CCc1ccc(O)cc1O)NCCCCNC(=O)CCc1ccc(O)cc1O [Formula VI, bis-2,4-dihydroxyphenylpropionyldiaminobutane]
- lowest concentration inhibiting formation of shrimp melanosis (potent inhibitor at concentrations as low as) (pink shrimp melanosis; FIG. 11, tested 0.001-0.025%): 0.005%

- pIC50 (PPO (mushroom)): 5.30
Structure (SMILES): O=C(CCc1ccc(O)cc1O)NCCCCNCCCNC(=O)CCc1ccc(O)cc1O [Formula VII, bis-2,4-dihydroxyphenylpropionylspermidine]

- pIC50 (PPO (mushroom)): 2.57
Structure (SMILES): Oc1cccc(O)c1 [Resorcinol, 1,3-dihydroxybenzene]
- reaction with 4-methyl-o-quinone formed by PPO in peaches (PPO in peaches): react with 4-methyl-o-quinone
- substrate for PPO (PPO in peaches): not substrates for PPO
